Results taken from patent US20010029264A1, “Novel methods and compositions for delivery of taxanes” (priority 1998, published 2001).
Where two headings read alike, the source gives them in different places.

Key:
[1] = Oral feasibility PK in dogs (paclitaxel capsules, plasma HPLC); type: in vivo; settings: for Cmax / Tmax: dog, plasma; for Tmax: read-out: tmax (time of maximum concentration observed)
Procedure: The formulation was as follows: […]
and was hand filled into single 0 hard gelatin capsules to a dose of approximately 34 mg/capsule.
Capsules were inserted into the esophagus and followed with a brief squirt of water and the animals held until swallowing was observed.

[2] = test system: human X-1 mammary tumor xenograft; settings: cited from earlier work
[3] = test system: IP implanted D16 melanoma; settings: cited from earlier work
[4] = Solubilization of paclitaxel in the carrier and appearance of the undiluted formulation; type: physicochemical
Procedure: 4.040 g of Vitamin E-TPGS (Eastman Chemical Co., Kingsport, Tenn.) was chipped in and weighed into a 20 ml scintillation vial. 0.514 g of dimethylisosorbide (“DMI”; ARLASOLVE® DMI, ICI Surfactants; Wilmington, Del.) was added to the vial followed by heating to melt the Vitamin E-TPGS/DMI mixture. […] The solution began to clarify and dissolution progressed.
Each formulation was prepared in a 20 ml scintillation vial. The vial was initially tared. CREMOPHOR® EL/citric acid blend (10 g CREMOPHOR® EL, 0.020 g citric acid) was weighed into each of eight (8) tared vials. The weight was recorded. Each vial was subsequently tared and the appropriate weight of dimethylisosorbide (DMI) was added. An additional five (5) vials were also prepared without containing the CREMOPHOR® EL/citric acid blend. […] All vials were individually tared and the appropriate weight of Vitamin E-TPGS was added. At this point, all vials were placed in a 40° C. incubator to liquefy the Vitamin E-TPGS within each sample. After the solutions had liquefied, two samples were removed at a time and placed on a stir/hotplate. One-half inch egg shaped stir bars were added to each scintillation vial.
Large clumps were broken apart easily with a stainless steel spatula. […] This same procedure was repeated for each of the samples.
1.016 g of ethyl alcohol was transferred to a 20 ml scintillation vial containing a stir bar. […]

[5] = male beagle FJF-8, oral, 3 capsules Vitamin E TPGS/DMI formulation, 7.66 mg/kg
[6] = male beagle IOF-8, oral, 3 capsules Vitamin E TPGS/DMI formulation, 6.88 mg/kg

Cmax [1, 5]: 108 ng/mL
Tmax [1, 5]: 1 h
Cmax [1, 6]: 92 ng/mL
Tmax [1, 6]: 0.5 h
tlast (time of last nonzero concentration observed) [1, 5]: 8 h
tlast (time of last nonzero concentration observed) [1, 6]: 6 h
tlast (time of last nonzero concentration observed) ([1]; male beagle OEF-8, oral, 1 capsule Vitamin E TPGS/DMI formulation, 3.27 mg/kg): 8 h
tlast (time of last nonzero concentration observed) ([1]; male beagle OLF-8, oral, 3 capsules Vitamin E TPGS/DMI formulation, 11.14 mg/kg): 8 h
tlast (time of last nonzero concentration observed) ([1]; male beagle PXF-8, oral, 1 capsule Vitamin E TPGS/DMI formulation, 3.23 mg/kg): 12 h
Cmax ([1]; male, beagle, po, 3.23 mg/kg): 17 ng/mL
Tmax ([1]; male, beagle, po, 3.23 mg/kg): 1 h
Cmax ([1]; male, beagle, po, 3.27 mg/kg): 97 ng/mL
Tmax ([1]; male, beagle, po, 3.27 mg/kg): 1 h
Cmax ([1]; male, beagle, po, 11.14 mg/kg): 63 ng/mL
Tmax ([1]; male, beagle, po, 11.14 mg/kg): 1 h
dissolution of paclitaxel in Methoxy PEG 550 alone ([4]; 0.050 g in 0.450 g (Table 3)): eventually dissolved
dissolution of paclitaxel in Methoxy PEG 350 alone ([4]; 0.050 g in 0.450 g and 0.100 g in 0.900 g (Table 3)): quickly dissolved
Compound: CC(=O)O[C@H]1C(=O)[C@@]2(C)[C@H]([C@H](OC(=O)c3ccccc3)[C@]3(O)C[C@H](OC(=O)[C@H](O)[C@@H](NC(=O)c4ccccc4)c4ccccc4)C(C)=C1C3(C)C)[C@]1(OC(C)=O)CO[C@@H]1C[C@@H]2O [paclitaxel]
detectable plasma levels of intact drug following dosing ([1]; six male beagles, oral capsules, 3 to 11 mg/kg, plasma to 48 hours postdose): Five of the six animals had detectable levels of intact drug
cytotoxic activity [2]: good cytotoxic activity
cytotoxic activity [3]: good cytotoxic activity
